Measured values taken from US10183047B2, “Chromium-containing compositions in combination with Phyllanthus emblica and shilajit having synergistic effects for improving endothelial function and cardiovascular health” (Natreon, Inc., priority 2014, dated 2019).

Tests used:
Assay type in all cases: in vivo, human
endothelial function = assay: Reflection index (RI), salbutamol challenge test, metabolic syndrome subjects; conditions: for RI: MS, 400 mcg; for Absolute change in RI / RI, % Post Tt / RI, % Pre Tt: metabolic syndrome subjects (Example 4), chromium products 400 mcg; for Absolute change in RI / RI, % Post Tt: after 12 weeks of treatment; for RI, % Pre Tt: pre-treatment
Text: A salbutamol (albuterol) challenge test employing digital volume plethysmography was used to assess endothelial function as reported by Chowienczyk et al., “Photoplethysmographic assessment of pulse wave reflection: blunted response to endothelium dependant beta 2-adrenergic vasodilation in type 2 diabetes mellitus,” J. Am. Coll. Cardiol. (1999 December) 34(7):2007-14; and Naidu, et al., “Comparison of two β2 adrenoceptor agonists by different routes of administration to assess human endothelial function,” Indian J. Pharmacol. (2007) 39:168-9. The patients were examined in supine position after 5 minutes of rest. A digital volume pulse (DVP) was obtained using a photo plethysmograph (Pulse Trace PCA2, PT200, Micro Medical, Gallingham, Kent, UK) transmitting infrared light at 940 nm, placed on the index finger of the right hand. The signal from the plethysmograph was digitized using a 12 bit analogue to digital converter with a sampling frequency of 100 Hz. DVP waveforms were recorded over 20 second period and the height of the late systolic/early diastolic portion of the DVP was expressed as a percentage of the amplitude of the DVP to yield the reflection index (RI), per the procedure described in detail by Millasseau et al., “Determination of age related increases in large artery stiffness by digital pulse contour analysis,” Clinical Science (2002) 103: 371-377. Three DVP recordings were taken, and measurements of reflection index (RI) were calculated and the mean value was determined. Patients were then administered 400 μg of salbutamol by inhalation. After 15 minutes three measurements of RI were obtained again and the difference in mean RI before and after administration of salbutamol was used for assessing endothelial function. A change of ≤6% in RI post-salbutamol was considered as endothelial dysfunction.
(§1) Patients included in the study, were of either gender, aged 30-68 years, having endothelial dysfunction defined as ≤6% change in reflection index (RI) on post salbutamol challenge test and central obesity as defined by The International Diabetes Federation guidelines, dated 2006, and any two of the following conditions:
(§2) After screening, all the eligible subjects were randomized to receive either one of the three treatments orally for duration of 12 weeks: group 1—one capsule of Crominex®3+ 200 mcg once daily; group 2—one capsule 400 mcg once daily; group 3—one capsule of Placebo once daily.
(§3) Subjects were reviewed for follow up at 4 weeks, 8 and 12 weeks of therapy. At each visit they were evaluated for efficacy and safety. Pharmacodynamic evaluation for endothelial function was conducted at baseline and end of treatment. Blood samples were collected for evaluation of biomarkers before and at end of treatment. Safety lab investigations for hematological, hepatic and renal biochemical parameters were conducted before and at the end of the study and also as and when required (in case of any adverse drug reaction (ADR)). Subjects were enquired for the presence of ADR and the same was recorded in the case report form. Compliance to therapy was assessed by pill count method.
(§4) Assessment of endothelial function, biomarkers, safety parameters and primary and secondary efficacy parameters and data analysis were performed as described under the study with type 2 diabetic subjects in Example 1.
(§5) When the results with Crominex® 3+ in the above two examples were highly significant, especially with the 400 mcg once daily dose in type 2 diabetics, two more clinical studies (EXAMPLES 3 & 4) were conducted at the same institute, following the same methodology as described earlier, on the individual components of Crominex® 3+, i.e., chromium chloride and Phyllanthus emblica+Shilajit, and other chromium supplements available in the market, i.e., chromium picolinate, chromium polynicotinate and chromium dinicocysteinate, in type 2 diabetics as well as in subjects with metabolic syndrome symptoms.

glutathione (GSH) [1] = assay: Glutathione level, spectrophotometric, type 2 diabetics; conditions: for GSH: DM, 400 mcg; for Mean percentage change in GSH / GSH Post Tt / GSH Pre Tt: type 2 diabetics (Example 3), chromium products 400 mcg; for Mean percentage change in GSH: 12 week treatment; for GSH Post Tt: post-treatment, 12 weeks; for GSH Pre Tt: pre-treatment
Experimental: (§6) The present clinical study is a prospective, randomized, double blind, placebo-controlled study. Patients of either sex, aged 30-65 years, fasting plasma glucose of 110-126 mg/dl, a glycosylated hemoglobin (HbA1c) between 6.5% and 8% and taking stable dose of anti-diabetic treatment (metformin 1500-2000 mg/day) for the past 8 weeks prior to the screening visit; and having endothelial dysfunction defined as ≤6% change in reflection index (RI) on post salbutamol challenge test were included in the study. Patients with severe uncontrolled hyperglyceamia, uncontrolled hypertension, cardiac arrhythmia, impaired hepatic or renal function, history of malignancy or stroke, smoking, chronic alcoholism, any other serious disease requiring active treatment and treatment with any other herbal supplements, were excluded from the study.
(§7) After screening, all the eligible subjects were randomized to receive either one of the three treatments orally for duration of 12 weeks—Group1—one capsule of Crominex®3+, 200 mcg once daily, Group 2—one capsule Crominex®3+, 400 mcg once daily; Group 3—one capsule of placebo once daily.
as §3, with “Subjects were required for follow” for “Subjects were reviewed for follow”, “up at 4, 8 and” for “up at 4 weeks, 8 and”, “conducted at every visit. Blood samples” for “conducted at baseline and end of treatment. Blood samples”, “and at the end of” for “and at end of”, “drug reaction (ADR). Subjects were” for “drug reaction (ADR)). Subjects were”
(§8) Nitric oxide, MDA, Glutathione and levels were estimated spectrophotometrically as follows. Malondialdehyde (MDA) levels were determined as described in Vidyasagar, et al., “Oxidative stress and antioxidant status in acute organophosphorous insecticide poisoning,” Indian J. Pharmacol. (April 2004) 36(2): 76-79. Glutathione levels were determined as described in G. L. Ellman, Arch. Biochem. Biophys. (1959) 82: 70-77 (original determination). Nitric oxide levels were estimated spectrophotometrically as described in Miranda, et al., “A Rapid, Simple Spectrophotometric Method for Simultaneous Detection of Nitrate and Nitrite,” NITRIC OXIDE: Biology and Chemistry (2001) Vol. 5, No. 1, pp. 62-71. hsCRP (high sensitivity C-reactive protein) was determined by ELISA method.
as §5

glutathione (GSH) [2] = assay: Glutathione level, metabolic syndrome subjects; conditions: for GSH: MS, 400 mcg; for GSH Post Tt / Mean percentage change in GSH / GSH Pre Tt: metabolic syndrome subjects (Example 4), chromium products 400 mcg; for GSH Post Tt: after 12 weeks of treatment; for Mean percentage change in GSH: after 12 weeks treatment; for GSH Pre Tt: pre-treatment
Experimental: as §8, §1, §2, §3, §4, §5

malondialdehyde (MDA) [3] = assay: Malondialdehyde level, metabolic syndrome subjects; conditions: for MDA: MS, 400 mcg; for MDA Post Tt / Mean percentage change in MDA / MDA Pre Tt: metabolic syndrome subjects (Example 4), chromium products 400 mcg; for MDA Post Tt: after 12 weeks of treatment; for Mean percentage change in MDA: after 12 weeks treatment; for MDA Pre Tt: pre-treatment
Experimental: as §8, §1, §2, §3, §4, §5

malondialdehyde (MDA) [4] = assay: Malondialdehyde level, spectrophotometric, type 2 diabetics; conditions: for MDA: DM, 400 mcg; for Mean percentage change in MDA / MDA Post Tt / MDA Pre Tt: type 2 diabetics (Example 3), chromium products 400 mcg; for Mean percentage change in MDA: 12 week treatment; for MDA Post Tt: post-treatment, 12 weeks; for MDA Pre Tt: pre-treatment
Experimental: as §6, §7
as §3, with “Subjects were required for follow” for “Subjects were reviewed for follow”, “up at 4, 8 and” for “up at 4 weeks, 8 and”, “conducted at every visit. Blood samples” for “conducted at baseline and end of treatment. Blood samples”, “and at the end of” for “and at end of”, “drug reaction (ADR). Subjects were” for “drug reaction (ADR)). Subjects were”
as §8, §5

[5] = tested on: high sensitivity C-reactive protein (hsCRP); assay: hsCRP by ELISA, metabolic syndrome subjects; design: hsCRP Pre Tt / hsCRP Post Tt: unit not given here; conditions: for hsCRP: MS, 400 mcg; for Mean percentage change in hsCRP / hsCRP Post Tt / hsCRP Pre Tt: metabolic syndrome subjects (Example 4), chromium products 400 mcg; for Mean percentage change in hsCRP: after 12 weeks treatment; for hsCRP Post Tt: after 12 weeks of treatment; for hsCRP Pre Tt: pre-treatment
Experimental: as §8
Patients included in the study, were of either gender, aged 30-68 years, having endothelial dysfunction defined as ≤6% change in reflection index (RI) on post salbutamol challenge test and central obesity as defined by The International Diabetes Federation guidelines, dated 2006, and any two of the following conditions: […]
as §3, §4, §5

Molecule | RI (endothelial function) [%] | Absolute change in RI (endothelial function) | RI, % Post Tt (endothelial function) | GSH (glutathione (GSH) [1]) [%] | Mean percentage change in GSH (glutathione (GSH) [1]) | GSH Post Tt (glutathione (GSH) [1]) [μM/L] | GSH Pre Tt (glutathione (GSH) [1]) [μM/L] | GSH (glutathione (GSH) [2]) [%] | GSH Post Tt (glutathione (GSH) [2]) [μM/L] | Mean percentage change in GSH (glutathione (GSH) [2]) [%] | GSH Pre Tt (glutathione (GSH) [2]) [μM/L] | MDA (malondialdehyde (MDA) [3]) [%] | MDA Post Tt (malondialdehyde (MDA) [3]) [nM/ml] | Mean percentage change in MDA (malondialdehyde (MDA) [3]) [%] | MDA Pre Tt (malondialdehyde (MDA) [3]) [nM/ml] | MDA (malondialdehyde (MDA) [4]) [%] | Mean percentage change in MDA (malondialdehyde (MDA) [4]) | MDA Post Tt (malondialdehyde (MDA) [4]) [nmol/mL] | MDA Pre Tt (malondialdehyde (MDA) [4]) [nmol/mL] | hsCRP [5] [%] | other results
O.O.O.O.O.O.[Cl][Cr]([Cl])[Cl] [Chromium chloride, Chromium chloride (CrCl3.6H2O)] | −0.1 | −0.10 ± 1.34 #@ % | −3.43 ± 1.49 NS % | 4.22 | 4.22 ± 0.64 #$NS % | 527.08 ± 16.98 | 505.73 ± 16.66 | 4.2 | 542.56 ± 46.51 | 4.17 ± 1.80 | 521.35 ± 49.06 | −4.65 | 3.76 ± 0.42 | −4.65 ± 1.95 | 3.94 ± 0.42 | −5.14 | −5.14 ± 1.92 #NS % | 3.73 ± 0.39 | 3.93 ± 0.39 | −11 | RI, % Pre Tt (endothelial function): −3.06 ± 1.98%; Mean percentage change in hsCRP [5]: −10.99 ± 3.29%
chromium dinicocysteinate | −0.98 | −0.98 ± 0.76 #@NS % | −4.58 ± 0.89 @ % | 5.77 | 5.77 ± 1.47 #$NS % | 563.66 ± 11.04 | 532.95 ± 10.63 | 5.4 | 558.38 ± 33.94 | 5.41 ± 1.38 | 529.89 ± 33.97 | −6.7 | 3.74 ± 0.42 | −6.67 ± 1.47 | 4.00 ± 0.42 | −6.62 | −6.62 ± 1.20@NS % | 3.72 ± 0.30 | 3.98 ± 0.31 | −13.76 | RI, % Pre Tt (endothelial function): −3.55 ± 1.09 ^ %; hsCRP Post Tt [5]: 2.24 ± 0.49; Mean percentage change in hsCRP [5]: −13.76 ± 4.64%; hsCRP Pre Tt [5]: 2.58 ± 0.48
chromium picolinate | −3.25 | −3.25 ± 0.98 #@NS % | −6.45 ± 0.40 % | 7.2 | 7.20 ± 0.82 #@NS % | 535.96 ± 31.89 | 499.99 ± 30.23 | 7.1 | 550.63 ± 26.21 | 7.07 ± 1.95 | 514.35 ± 25.09 | −7.1 | 3.60 ± 0.46 | −7.14 ± 1.70 | 3.87 ± 0.47 | −6.03 | −6.03 ± 1.65 #NS % | 3.78 ± 0.34 | 4.02 ± 0.33 | −19.45 | hsCRP Post Tt [5]: 2.15 ± 0.40; Mean percentage change in hsCRP [5]: −19.45 ± 2.98%; hsCRP Pre Tt [5]: 2.67 ± 0.44
chromium polynicotinate | −1.51 | −1.51 ± 1.78 #@NS % | −3.85 ± 0.86 @ % | 5.3 | 5.30 ± 1.04 #@NS % | 534.54 ± 32.56 | 507.72 ± 31.73 | 5.1 | 549.43 ± 20.18 | 5.09 ± 1.36 | 522.92 ± 20.68 | −5.4 | 3.83 ± 0.41 | −5.38 ± 1.31 | 4.04 ± 0.40 | −5.56 | −5.56 ± 1.34 #NS % | 3.75 ± 0.24 | 3.97 ± 0.23 | −12.34 | RI, % Pre Tt (endothelial function): −2.39 ± 2.18 ^ %; hsCRP Post Tt [5]: 2.42 ± 0.54; Mean percentage change in hsCRP [5]: −12.34 ± 2.16%; hsCRP Pre Tt [5]: 2.76 ± 0.58
